System: ciliary transport of pig airway mucus secretions on the ex vivo pig trachea
Test: Ciliary transport of mucus secretions (tracheal mucus velocity) on ex vivo normal pig trachea
Settings: for first time point where increased ciliary transport is observed (class summary): Classes 2 and 3, after application of the treatment; for onset and duration profile of increased ciliary transport of secretions: normal pig trachea, single 10 min treatment; for class of ciliary transport enhancer: three classes of ENaC regulating substances; for time of maximum transport speed following initiation of treatment / first time point with increased ciliary transport compared to BSS controls: 0.1 mM UTP; for first time point with increased ciliary transport compared to BSS controls: applied 10 min in BSS: 10^−4 M amiloride, +50 mM-NaCl, 100 mosM-mannitol, 100 mosM-sodium gluconate, combinations with 10^−5M Rx
Protocol: The lumen of each trachea was cleaned by gentle irrigation with BSS. Tracheas were opened longitudinally with scissors along the posterior aspect and mounted with the posterior aspect upwards in a moist air-tight box. An aliquot of pig airway mucus approximately 3 mm diameter was placed on the mucosal surface close to the distal end of each trachea. Tracheal mucus velocity (TMV mm/min) was measured by recording the distance moved, towards the laryngeal end of the trachea, in a given time. At the start of the study three measurements of TMV were made for each trachea to establish a baseline rate for the trachea. Solutions were then pipetted onto the luminal mucosal surface of tracheas for 10 min; BSS control tracheas (open circles; n=6); 10^−4 M amiloride in BSS (closed squares; n=6). Excess solution was then tipped off the mucosal surface and measurement of TMV repeated. TMV results at each time point are expressed as % of the baseline TMV, ciliary transport index (mean±SD).
Pig tracheas (from larynx to carina) from normal wild type animals were obtained from a local abattoir or Veterinary University. Transgenic CF piglets were produced as described by Klymiuk et al. 2012, and tracheas were obtained at a Veterinary University. The lumen of each trachea was cleaned by gentle irrigation with BSS. Tracheas were opened longitudinally with scissors along the posterior aspect and mounted with the posterior aspect upwards in a moist air-tight box. An aliquot of pig airway mucus approximately 3 mm diameter was placed on the mucosal surface close to the distal end of each trachea. Tracheal mucus velocity (TMV mm/min) was measured by recording the distance moved, towards the laryngeal end of the trachea, in a given time. At the start of a study three measurements of TMV were made for each trachea to establish a baseline rate for the trachea. Solutions were then pipetted onto the luminal mucosal surface of tracheas for 10 min. Then excess solution was tipped off the mucosal surface and measurement of TMV repeated. TMV results at each time point are expressed as % of the baseline TMV, ciliary transport index (mean±SD).

Row | Structure (SMILES) | ciliary transport speed at the first two time points (25 and 40 min) compared to BSS controls (10^−5M in BSS) | ciliary transport at 24 h following exposure to the treatment (class summary) (Class 3) | first time point where increased ciliary transport is observed (class summary) | dose of maximum increase in ciliary transport (at 3 h 40 min, tested 10^−9 M to 10^−5 M) | onset and duration profile of increased ciliary transport of secretions | class of ciliary transport enhancer | time of maximum transport speed following initiation of treatment (10^−4 M amiloride) | first time point with increased ciliary transport compared to BSS controls | difference from BSS control tracheas at 40 min, 55 min and 1 h 10 min (10^−4 M amiloride) | duration of stimulation of ciliary transport (10^−4 M amiloride) | time by which transport speed returned to control levels (10^−4 M amiloride) | stimulated ciliary transport through to (last time point) (10^−4 M amiloride in BSS applied 10 min) | onset of increased ciliary transport of secretions (class summary) (Class 1) | return to control transport rate (class summary) (Class 1) | peak increase in the rate of ciliary transport (class summary) (Classes 1 to 3 of ciliary transport enhancers)
1 | N=C(N)Nc1ccc(C(=O)Oc2ccc3cc(C(=N)N)ccc3c2)cc1 [6-amidino-2-napthyl 4-guanidinobenzoate] | no increase in speed | continues to exceed control transport rate | 55 min | 10^−6 M | slow-onset long duration | Slow onset—long duration | – | – | – | – | – | – | – | – | –
2 | O=c1ccn([C@@H]2O[C@H](COP(=O)(O)OP(=O)(O)OP(=O)(O)O)[C@@H](O)[C@H]2O)c(=O)[nH]1 [UTP, uridine 5′-triphosphate] | – | – | 25 min | – | medium-onset medium duration | Medium onset—medium duration | 55 min | 25 min | – | – | – | – | – | – | –
3 | N=C(N)NC(=O)c1nc(Cl)c(N)nc1N [amiloride] | – | – | – | – | rapid onset and of short duration | Rapid onset—short duration | 25 min | 10 min | no significant difference | less than 1 h | ≤ 40 min | 35 min | immediate | ≤ 40 min | 30%
4 | OC[C@@H](O)[C@@H](O)[C@H](O)[C@H](O)CO [hyperosmotic mannitol, mannitol] | – | – | 25 min | – | medium-onset medium duration | Medium onset—medium duration | – | 25 min | – | – | – | – | – | – | –
5 | O=C([O-])[C@H](O)[C@@H](O)[C@H](O)[C@H](O)CO.[Na+] [hyperosmotic sodium gluconate, sodium gluconate] | – | – | 25 min | – | medium-onset medium duration | Medium onset—medium duration | – | 25 min | – | – | – | – | – | – | –
